# Measurements taken from the supplement of paper PMC7029842.
# ± gives the standard deviation of the averaged measurements.
# Assays:
# Assay in all cases: minimum inhibitory concentration (MIC)
# Conditions in all cases: incubation time: 18 h
# [1] = system: Burkholderia cepacia ISS isolate s20
# [2] = system: Burkholderia cepacia ISS isolate s24
# [3] = system: Burkholderia cepacia ISS isolate s22
# [4] = system: Burkholderia contaminans J2956
# [5] = system: Burkholderia contaminans ISS isolate s53
# [6] = system: Burkholderia cepacia ISS isolate s41
# [7] = system: Burkholderia cepacia ISS isolate s39
# [8] = system: Burkholderia cepacia ISS isolate s28
# [9] = system: Burkholderia contaminans ISS isolate s54
# [10] = system: Burkholderia cepacia ISS isolate s31
# [11] = system: Burkholderia cepacia ISS isolate s33
# [12] = system: Burkholderia contaminans ISS isolate s52
# [13] = system: Burkholderia cepacia ISS isolate s57
# [14] = system: Burkholderia cepacia ISS isolate s9
# [15] = system: Burkholderia contaminans ISS isolate s56
# [16] = system: Burkholderia contaminans ISS isolate s47
# [17] = system: Burkholderia cepacia ISS isolate s37
# [18] = system: Burkholderia cepacia ISS isolate s25
# [19] = system: Burkholderia cepacia ISS isolate s18
# [20] = system: Burkholderia cepacia ISS isolate s35
# [21] = system: Burkholderia cepacia ATCC25416
# [22] = system: Burkholderia cepacia ISS isolate s16
# [23] = system: Burkholderia cepacia ISS isolate s36
# [24] = system: Burkholderia cepacia ISS isolate s12
# [25] = system: Burkholderia cepacia ISS isolate s15
# [26] = system: Burkholderia cepacia ISS isolate s23
structure (smiles),measurement,setting,value
CN(C)c1ccc(O)c2c1C[C@H]1C[C@H]3[C@H](N(C)C)C(O)=C(C(N)=O)C(=O)[C@@]3(O)C(O)=C1C2=O [minocycline],minimum inhibitory concentration,[1],6.35 ± 7 µg/mL
same,minimum inhibitory concentration,[2],12.7 ± 14 µg/mL
same,minimum inhibitory concentration,[3],6.35 ± 2.3 µg/mL
same,minimum inhibitory concentration,[4],2 µg/mL
same,minimum inhibitory concentration,[5],2 µg/mL
same,minimum inhibitory concentration,[6],8 ± 6.1 µg/mL
same,minimum inhibitory concentration,[7],6.35 ± 6.9 µg/mL
same,minimum inhibitory concentration,[8],10.1 ± 15 µg/mL
same,minimum inhibitory concentration,[9],2 µg/mL
same,minimum inhibitory concentration,[10],4 µg/mL
same,minimum inhibitory concentration,[11],12.7 ± 4.6 µg/mL
same,minimum inhibitory concentration,[12],2 µg/mL
same,minimum inhibitory concentration,[13],2 µg/mL
same,minimum inhibitory concentration,[14],6.35 ± 6.9 µg/mL
same,minimum inhibitory concentration,[15],2.52 ± 1.1 µg/mL
same,minimum inhibitory concentration,[16],3.17 ± 3.5 µg/mL
same,minimum inhibitory concentration,[17],6.35 ± 2.3 µg/mL
same,minimum inhibitory concentration,[18],8 ± 6.1 µg/mL
same,minimum inhibitory concentration,[19],6.35 ± 7 µg/mL
same,minimum inhibitory concentration,[20],8 µg/mL
same,minimum inhibitory concentration,[21],1.59 ± 0.58 µg/mL
same,minimum inhibitory concentration,[22],5.04 ± 3.5 µg/mL
same,minimum inhibitory concentration,[23],6.35 ± 6.9 µg/mL
same,minimum inhibitory concentration,[24],3.17 ± 1.1 µg/mL
same,minimum inhibitory concentration,[25],12.7 ± 4.6 µg/mL
same,minimum inhibitory concentration,[26],8 ± 6.1 µg/mL
